Molecular target: T1, Human M4 (Homo sapiens, UniProt P08173)
T1 construct: Human or rat M4 cDNA, along with the chimeric G protein Gqi5, were transfected into Chinese hamster ovary (CHO-K1) cells; expressed in transfected cells; host or cells: CHO-K1 (Chinese hamster ovary, ATCC), stably co-expressing Gqi5
T1 sequence (P08173 1-479): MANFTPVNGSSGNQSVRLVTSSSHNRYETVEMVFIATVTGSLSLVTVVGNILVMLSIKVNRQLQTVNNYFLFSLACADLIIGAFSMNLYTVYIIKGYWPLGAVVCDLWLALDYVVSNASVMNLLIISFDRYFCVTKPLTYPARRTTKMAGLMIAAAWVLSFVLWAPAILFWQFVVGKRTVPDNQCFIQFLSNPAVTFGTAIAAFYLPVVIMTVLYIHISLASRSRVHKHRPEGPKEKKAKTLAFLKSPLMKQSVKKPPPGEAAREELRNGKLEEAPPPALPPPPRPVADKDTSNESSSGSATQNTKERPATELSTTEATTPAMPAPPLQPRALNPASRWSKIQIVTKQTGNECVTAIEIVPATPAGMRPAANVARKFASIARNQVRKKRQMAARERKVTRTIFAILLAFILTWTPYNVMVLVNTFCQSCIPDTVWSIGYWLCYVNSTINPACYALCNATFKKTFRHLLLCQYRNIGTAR
Experiment: mAChR M4 cell-based functional assay (calcium flux, decrease of EC80 acetylcholine response)
Settings: for remaining activity at 30 µM: % ACh maximum at 30 μM, read-out: Human M4 Emin; for IC50: M4/Gqi5/CHO-K1 cells, decrease of response to EC80 acetylcholine
Procedure, shortened: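 IC50 reflects inhibition of an EC80 acetylcholine calcium response, fitted by four-parameter logistic equation. Fluo-4-loaded M4/Gqi5 CHO-K1 cells received compound (10-point, 1:3 series) 2 s into the FDSS read, then EC20 acetylcholine at 143 s and EC80 at 268 s.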

SMILES | remaining activity at 30 µM [%] | IC50 [nM]
Cc1ccc(F)cc1-c1cc(C(F)(F)F)c(O[C@H]2C[C@@H]3CN(CC4CCOCC4)C[C@@H]3C2)nn1 [Example 132, (3aR,5s,6aS)-5-((6-(5-fluoro-2-methylphenyl)-4-(trifluoromethyl)pyridazin-3-yl)oxy)-2-((tetrahydro-2H-pyran-4-yl)methyl)octahydro-cyclopenta[c]pyrrole] | 3 | 592
[2H][C@@]1(Oc2cc(C(F)(F)F)c(-c3cc(F)ccc3C)nn2)C[C@H]2CN(CC3CCOCC3)C[C@H]2C1 [Example 133, (3aR,5s,6aS)-5-((6-(5-fluoro-2-methylphenyl)-5-(trifluoromethyl)pyridazin-3-yl)oxy)-2-((tetrahydro-2H-pyran-4-yl)methyl)octahydro-cyclopenta[c]pyrrole-5-d] | 3 | 217
[2H][C@@]1(Oc2nnc(-c3cc(F)ccc3C)cc2C(F)(F)F)C[C@H]2CN(Cc3ccccn3)C[C@H]2C1 [Example 134, (3aR,5s,6aS)-5-((6-(5-fluoro-2-methylphenyl)-4-(trifluoro-methyl)pyridazin-3-yl)oxy)-2-(pyridin-2-ylmethyl)octahydro-cyclopenta[c]pyrrole-5-d] | 6 | 2830
[2H][C@@]1(Oc2nnc(-c3cc(F)ccc3C)cc2C(F)(F)F)C[C@H]2CN(CC3CCOCC3)C[C@H]2C1 [Example 135, (3aR,5s,6aS)-5-((6-(5-fluoro-2-methylphenyl)-4-(trifluoro-methyl)pyridazin-3-yl)oxy)-2-((tetrahydro-2H-pyran-4-yl)methyl)octahydro-cyclopenta[c]pyrrole-5-d] | 4 | 622
C[C@@H]1CCCN(c2cc(C(F)(F)F)c(N[C@H]3C[C@@H]4CN(CC5CCOCC5)C[C@@H]4C3)nn2)C1 [Example 136, (3aR,5s,6aS)-N-(6-((R)-3-methylpiperidin-1-yl)-4-(trifluoromethyl)pyridazin-3-yl)-2-((tetrahydro-2H-pyran-4-yl)methyl)octahydro-cyclopenta[c]pyrrol-5-amine] | 2 | 20.6
C[C@H]1CCCN(c2cc(C(F)(F)F)c(N[C@H]3C[C@@H]4CN(CC5CCOCC5)C[C@@H]4C3)nn2)C1 [Example 137, (3aR,5s,6aS)-N-(6-((S)-3-methylpiperidin-1-yl)-4-(trifluoro-methyl)pyridazin-3-yl)-2-((tetrahydro-2H-pyran-4-yl)methyl)octahydro-cyclopenta[c]pyrrol-5-amine] | 2 | 14.3
FC1(F)CCCN(c2cc(C(F)(F)F)c(N[C@H]3C[C@@H]4CN(CC5CCOCC5)C[C@@H]4C3)nn2)C1 [Example 138, (3aR,5s,6aS)-N-(6-(3,3-difluoro-piperidin-1-yl)-4-(trifluoro-methyl)pyridazin-3-yl)-2-((tetrahydro-2H-pyran-4-yl)methyl)octahydro-cyclopenta[c]pyrrol-5-amine] | 2 | 21.2
F[C@H]1CCN(c2cc(C(F)(F)F)c(N[C@H]3C[C@@H]4CN(CC5CCOCC5)C[C@@H]4C3)nn2)C1 [Example 139, (3aR,5s,6aS)-N-(6-((S)-3-fluoropyrrolidin-1-yl)-4-(trifluoromethyl)pyridazin-3-yl)-2-((tetrahydro-2H-pyran-4-yl)methyl)octahydro-cyclopenta[c]pyrrol-5-amine] | 2 | 7.2
F[C@@H]1CCN(c2cc(C(F)(F)F)c(N[C@H]3C[C@@H]4CN(CC5CCOCC5)C[C@@H]4C3)nn2)C1 [Example 140, (3aR,5s,6aS)-N-(6-((R)-3-fluoropyrrolidin-1-yl)-4-(trifluoromethyl)pyridazin-3-yl)-2-((tetrahydro-2H-pyran-4-yl)methyl)octahydro-cyclopenta[c]pyrrol-5-amine] | 2 | 9.2
FC1(F)CCN(c2cc(C(F)(F)F)c(N[C@H]3C[C@@H]4CN(CC5CCOCC5)C[C@@H]4C3)nn2)C1 [Example 141, (3aR,5s,6aS)-N-(6-(3,3-difluoropyrrolidin-1-yl)-4-(trifluoromethyl)pyridazin-3-yl)-2-((tetrahydro-2H-pyran-4-yl)methyl)octahydro-cyclopenta[c]pyrrol-5-amine] | 2 | 8.3
FC(F)(F)c1cc(N2CCCC2)nnc1N[C@H]1C[C@@H]2CN(CC3CCOCC3)C[C@@H]2C1 [Example 142, (3aR,5s,6aS)-N-(6-(pyrrolidin-1-yl)-4-(trifluoro-methyl)pyridazin-3-yl)-2-((tetrahydro-2H-pyran-4-yl)methyl)octahydro-cyclopenta[c]pyrrol-5-amine] | 2 | 3
FC(F)(F)c1cc(N2CCOCC2)nnc1N[C@H]1C[C@@H]2CN(CC3CCOCC3)C[C@@H]2C1 [Example 143, (3aR,5s,6aS)-N-(6-morpholino-4-(trifluoromethyl)pyridazin-3-yl)-2-((tetrahydro-2H-pyran-4-yl)methyl)octahydro-cyclopenta[c]pyrrol-5-amine] | 2 | 35.1
[2H]C([2H])(C1CCOCC1)N1C[C@H]2C[C@H](Nc3nnc(-c4ccc5c(cnn5C)c4)cc3C(F)(F)F)C[C@H]2C1 [Example 144, (3aR,5s,6aS)-N-(6-(1-methyl-1H-indazol-5-yl)-4-(trifluoromethyl)pyridazin-3-yl)-2-((tetrahydro-2H-pyran-4-yl)methyl)octahydro-cyclopenta[c]pyrrol-5-amine] | 3 | 71.3
N#Cc1cc(-c2cc(F)ccc2Cl)nnc1N[C@H]1C[C@@H]2CN(CC3CCOCC3)C[C@@H]2C1 [Example 145, 6-(2-chloro-5-fluorophenyl)-3-(((3aR,5s,6aS)-2-((tetrahydro-2H-pyran-4-yl)methyl)octahydro-cyclopenta[c]pyrrol-5-yl)amino)pyridazine-4-carbonitrile] | 3 | 1.4
Cc1ccc(F)cc1-c1cc(C#N)c(N[C@H]2C[C@@H]3CN(CC4CCOCC4)C[C@@H]3C2)nn1 [Example 146, 6-(5-fluoro-2-methylphenyl)-3-(((3aR,5s,6aS)-2-((tetrahydro-2H-pyran-4-yl)methyl)octahydro-cyclopenta[c]pyrrol-5-yl)amino)pyridazine-4-carbonitrile] | 6 | 15.6
Cc1ccc(F)cc1-c1cc(C#N)c(N[C@H]2C[C@@H]3CN(C[C@@H]4CC5CCC4O5)C[C@@H]3C2)nn1 (stereo partly drawn) [Example 147, 3-(((3aR,5s,6aS)-2-(((2S)-7-oxabicyclo[2.2.1]heptan-2-yl)methyl)octahydro-cyclopenta[c]pyrrol-5-yl)amino)-6-(5-fluoro-2-methylphenyl)pyridazine-4-carbonitrile] | 5 | 0.8
Cc1ccc(F)cc1-c1cc(C#N)c(N[C@H]2C[C@@H]3CN(C[C@H]4CC5CCC4O5)C[C@@H]3C2)nn1 (stereo partly drawn) [Example 148, 3-(((3aR,5s,6aS)-2-(((2R)-7-oxabicyclo[2.2.1]heptan-2-yl)methyl)octahydro-cyclopenta[c]pyrrol-5-yl)amino)-6-(5-fluoro-2-methylphenyl)pyridazine-4-carbonitrile] | 2 | 1.1

From patent US20230183219A1, “CONDENSED SUBSTITUTED HYDROPYRROLES AS ANTAGONISTS OF THE MUSCARINIC ACETYLCHOLINE RECEPTOR M4” (Vanderbilt University, priority 2020, published 2023)
